Laboratory results reported in patent US11680056B2, “MK2 inhibitors and uses thereof” (Xinthera, Inc., priority 2021, dated 2023).
Where two headings read alike, the source gives them in different places.

Experiments:
p38a/MK2 = p38a/MK2 (Homo sapiens (Human), UniProt P49137+Q16539); assay: p38a/MK2 biochemical assay: activation of MK2 by p38, FITC-HSP27 peptide phosphorylation (IMAP FP); conditions: 10-point 1:3 dilution, 60 pM active p38a, 1 nM inactive MK2, 10 μM ATP, 2 h incubation
Experimental: (§1) Expression vectors of the recombinant MK2 and PRAK kinases were constructed by cloning of the codon optimized gene sequences of MK2 (Uniprot ID P49137, amino acid fragment F46-H400), or PRAK (Uniprot ID Q81W41, amino acid fragment M1-Q471) into pGEX-4T1 (GE) for over expression of these kinases with N-terminal GST-tag. Protein expression was carried out in E. coli BL21 by growing the hosts in TB medium, induction of protein expression with 0.5 mM IPTG at approximate 0.8 OD600, and incubation of the cultures at 18° C. for 14-20 hours afterwards. The harvested cells were resuspended in […] of Lysis buffer (50 mM Tris-HCl, pH 8.0, 500 mM NaCl, 1 mM DTT, 5% glycerol, and 1 mM PMSF) per gram of wet cell mass and homogenized at 4° C. in a microfluidizer (ATS, Suzhou, China) at 14,000 psi pressure, 3 passes. The cell lysates were clarified by centrifugation and the supernatants containing the GST-fusion proteins were purified by affinity chromatography using GSH-Sepharose (GE) gravity flow columns pre-equilibrated in Buffer A (50 mM Tris-HCl, pH 8.0, 500 mM NaCl, 1 mM DTT, and 5% glycerol). After thorough washing of the columns with Buffer A, the bound GST-proteins were eluted by Buffer B (50 mM Tris, pH 8.0, 500 mM NaCl, 1 mM DTT, 5% glycerol, 10 mM glutathione), followed by size-exclusion purification on Superdex 200 column equilibrated in Buffer A. The purified proteins were concentrated to approximately 1 mg/ml and stored at −80° C.
This study evaluates the inhibitory potency of invention compound on p38/MK2 pathway vs p38/PRAK pathway. More specially the compound concentration (IC50) was determined that inhibited half of the maximal activation of MK2 or PRAK by p38. MK2 activation study was set up without or with a serial of 10-point 1:[…], and PRAK activation study was set up without or with a serial of 10-point 1:3 dilution of invention compound at top dose of 300 μM. The MK2 and PRAK activity were determined by the phosphorylation level of HSP27 peptide conjugated with FITC.
(§2) After 2 h incubation of the reaction mixture with various concentration of invention compound (200 nL), 60 μL 1×IMAP solution Mixture (Molecular Devices, Cat R8127) was added to the reaction mixture and incubated for another half hour. The signal was then read by Synergy™ Neo2 Multi-Mode Microplate Reader with filter setting (Ex/Em=485 nm/FITC FP-P pol 528 nm & FITC FP-S pol 528 nm)
(§3) The signal was then normalized to vehicle control and fitted in Xfit to generate IC50. The selectivity of MK2 over PRAK was calculated by the formular Selectivity=IC50 of PRAK/IC50 of MK2.

p38a/PRAK = p38a/PRAK (Homo sapiens (Human), UniProt Q16539); assay: p38a/PRAK biochemical assay: activation of PRAK by p38, FITC-HSP27 peptide phosphorylation (IMAP FP); conditions: 10-point 1:3 dilution, top dose 300 μM; 60 pM active p38a, 1 nM inactive PRAK, 10 μM ATP, 2 h incubation; read-out: p38a/PRAK Enzyme pIC50 (converted)
Sequence of p38a/PRAK (Q16539 whole entry): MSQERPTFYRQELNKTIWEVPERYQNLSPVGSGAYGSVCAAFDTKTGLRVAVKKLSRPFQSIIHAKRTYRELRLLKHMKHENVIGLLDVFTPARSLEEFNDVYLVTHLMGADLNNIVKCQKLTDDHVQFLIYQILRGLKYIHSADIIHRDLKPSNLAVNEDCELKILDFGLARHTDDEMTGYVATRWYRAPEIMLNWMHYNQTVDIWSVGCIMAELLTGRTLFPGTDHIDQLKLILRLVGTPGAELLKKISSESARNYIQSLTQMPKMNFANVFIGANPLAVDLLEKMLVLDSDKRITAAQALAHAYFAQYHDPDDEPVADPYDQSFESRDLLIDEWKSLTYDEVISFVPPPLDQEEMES
Experimental: as §1
This study evaluates the inhibitory potency of invention compound on p38/MK2 pathway vs p38/PRAK pathway. More specially the compound concentration (IC50) was determined that inhibited half of the maximal activation of MK2 or PRAK by p38. MK2 activation study was set up without or with a serial of 10-point 1:3 dilution of invention compound at top dose of […], and PRAK activation study was set up without or with a serial of 10-point 1:3 dilution of invention compound at top dose of 300 μM. The MK2 and PRAK activity were determined by the phosphorylation level of HSP27 peptide conjugated with FITC.
as §2, §3

[1] = top dose 1 μM, read-out: p38a/MK2 (1 μM) Enzyme pIC50 (converted)
[2] = top dose 10 μM, read-out: p38a/MK2 (10 μM) Enzyme pIC50 (converted)

Sequence of p38a/MK2 (P49137 46-400): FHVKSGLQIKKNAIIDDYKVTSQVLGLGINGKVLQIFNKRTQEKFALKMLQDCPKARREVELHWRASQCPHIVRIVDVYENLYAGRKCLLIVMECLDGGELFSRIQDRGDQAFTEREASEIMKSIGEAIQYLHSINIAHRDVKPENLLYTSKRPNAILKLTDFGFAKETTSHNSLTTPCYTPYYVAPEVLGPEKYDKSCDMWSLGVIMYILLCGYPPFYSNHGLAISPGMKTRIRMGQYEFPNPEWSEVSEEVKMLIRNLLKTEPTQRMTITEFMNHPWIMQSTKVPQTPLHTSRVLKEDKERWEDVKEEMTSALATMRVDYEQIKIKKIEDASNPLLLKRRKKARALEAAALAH
Sequence of p38a/MK2 (Q16539 whole entry, the tested form may be a part): as the sequence (Q16539 whole entry) above

| SMILES | IC50 (p38a/MK2; [1]) | IC50 (p38a/PRAK) | IC50 (p38a/MK2; [2]) | p38a/MK2 (10 μM) Enzyme pIC50 (p38a/MK2; top dose 10 μM) |
| --- | --- | --- | --- | --- |
| Cc1cnc(-c2nc(C(C)(C)O)n(C)n2)cc1-n1c(C)cc(OCc2ncc(F)cc2F)c(Cl)c1=O (single isomer, unassigned) [Example 42A, rel-3-chloro-4-[(3,5-difluoropyridin-2-yl)methoxy]-2′-[5-(2-hydroxypropan-2-yl)-1-methyl-1,2,4-triazol-3-yl]-5′,6-dimethyl-[1,4′-bipyridin]-2-one] | 0.501 µM | 6.31 µM | – | – |
| Cc1cnc(-c2ccnc([C@](C)(O)C3CC3)n2)cc1-n1c(C)cc(OCc2ncc(F)cc2F)c(Cl)c1=O (single isomer, unassigned) [Example 6C, rel-3-chloro-2′-[2-(1-cyclopropyl-1-hydroxyethyl)pyrimidin-4-yl]-4-[(3,5-difluoropyridin-2-yl)methoxy]-5′,6-dimethyl-[1,4′-bipyridin]-2-one] | – | > 316 µM | 3.16 µM | – |
| Cc1cnc(-c2cc(C3CC3)nc(C(C)(C)O)n2)cc1-n1c(C)cc(OCc2ncc(F)cc2F)c(Cl)c1=O (atropisomer, axis not shown) [Example 10, 3-chloro-2′-[6-cyclopropyl-2-(2-hydroxypropan-2-yl)pyrimidin-4-yl]-4-[(3,5-difluoropyridin-2-yl)methoxy]-5′,6-dimethyl-[1,4′-bipyridin]-2-one] | – | 5.01 µM | – | 5.8 |
| Cc1ncc(-c2ccnc(C(C)(C)O)n2)cc1-n1c(C)cc(OCc2ncc(F)cc2F)c(Cl)c1=O (single isomer, unassigned) [Example 45B, rel-3-chloro-4-[(3,5-difluoropyridin-2-yl)methoxy]-5′-[2-(2-hydroxypropan-2-yl)pyrimidin-4-yl]-2′,6-dimethyl-[1,3′-bipyridin]-2-one] | 0.501 µM | 39.8 µM | – | – |
| Cc1cnc(-c2cccc([C@](C)(O)CO)n2)cc1-n1c(C)cc(OCc2ncc(F)cc2F)c(Cl)c1=O (atropisomer, axis not shown) [Example 14, 3-chloro-4-[(3,5-difluoropyridin-2-yl)methoxy]-2′-[6-(1,2-dihydroxypropan-2-yl)pyridin-2-yl]-5′,6-dimethyl-[1,4′-bipyridin]-2-one] | – | 20 µM | – | 7.7 |
| Cc1cnc(-c2ccnc(C3CC(O)C3)n2)cc1-n1c(C)cc(OCc2ncc(F)cc2F)c(Cl)c1=O (single isomer, unassigned) [Example 26B, rel-3-chloro-4-((3,5-difluoropyridin-2-yl)methoxy)-2′-(2-(3-hydroxycyclobutyl)pyrimidin-4-yl)-5′,6-dimethyl-2H-[1,4′-bipyridin]-2-one] | – | > 316 µM | 1.58 µM | – |
| Cc1cnc(-c2ccnc([C@@](C)(O)C3CC3)n2)cc1-n1c(C)cc(OCc2ncc(F)cc2F)c(Cl)c1=O (single isomer, unassigned) [Example 6D, rel-3-chloro-2′-[2-(1-cyclopropyl-1-hydroxyethyl)pyrimidin-4-yl]-4-[(3,5-difluoropyridin-2-yl)methoxy]-5′,6-dimethyl-[1,4′-bipyridin]-2-one] | – | > 316 µM | 2.51 µM | – |
| Cc1cnc(-c2ccnc(C(C)(C)O)n2)cc1-n1c(C)cc(OCc2cc(C(F)F)ccn2)c(Cl)c1=O (single isomer, unassigned) [Example 27B, rel-3-chloro-4-{[4-(difluoromethyl)pyridin-2-yl]methoxy}-2′-[2-(2-hydroxypropan-2-yl)pyrimidin-4-yl]-5′,6-dimethyl-[1,4′-bipyridin]-2-one] | – | > 316 µM | 5.01 µM | – |
| Cc1cnc(-c2ccnc(C3(O)CCOCC3)n2)cc1-n1c(C)cc(OCc2ncc(F)cc2F)c(Cl)c1=O (single isomer, unassigned) [Example 39A, rel-3-chloro-4-((3,5-difluoropyridin-2-yl)methoxy)-2′-(2-(4-hydroxytetrahydro-2H-pyran-4-yl)pyrimidin-4-yl)-5′,6-dimethyl-2H-[1,4′-bipyridin]-2-one] | 0.01 µM | 12.6 µM | – | – |
| [2H]C([2H])([2H])C(O)(c1nccc(-c2ncc(C)c(-n3c(C)cc(OCc4ncc(F)cc4F)c(Cl)c3=O)c2F)n1)C([2H])([2H])[2H] (single isomer, unassigned) [Example 66A, rel-3-chloro-4-((3,5-difluoropyridin-2-yl)methoxy)-3′-fluoro-2′-(2-(2-hydroxypropan-2-yl-1,1,1,3,3,3-d6)pyrimidin-4-yl)-5′,6-dimethyl-2H-[1,4′-bipyridin]-2-one] | > 0.1 µM | > 316 µM | – | – |
| [2H]C([2H])(Oc1cc(C)n(-c2cc(-c3ccnc(C(C)(C)O)c3F)ncc2C)c(=O)c1Cl)c1ncc(F)cc1F (single isomer, unassigned) [Example 64B, rel-3-chloro-4-[(3,5-difluoropyridin-2-yl)(2H2)methoxy]-1-[3′-fluoro-2′-(2-hydroxypropan-2-yl)-5-methyl-[2,4′-bipyridin]-4-yl]-6-methylpyridin-2-one] | > 0.1 µM | > 316 µM | – | – |
| Cc1c(-n2c(C)cc(OCc3ncc(F)cc3F)c(Cl)c2=O)ccnc1-n1ccc(C(C)(C)O)n1 (single isomer, unassigned) [Example 52B, rel-3-chloro-4-((3,5-difluoropyridin-2-yl)methoxy)-2′-(3-(2-hydroxypropan-2-yl)-1H-pyrazol-1-yl)-3′,6-dimethyl-2H-[1,4′-bipyridin]-2-one] | 0.0158 µM | 25.1 µM | – | – |
| Cc1cnc(-c2ccnc(C3CC(O)C3)n2)cc1-n1c(C)cc(OCc2ncc(F)cc2F)c(Cl)c1=O (single isomer, unassigned) [Example 26A, rel-3-chloro-4-((3,5-difluoropyridin-2-yl)methoxy)-2′-(2-(3-hydroxycyclobutyl)pyrimidin-4-yl)-5′,6-dimethyl-2H-[1,4′-bipyridin]-2-one] | 0.0126 µM | 2 µM | – | – |
| Cc1cnc(-c2ccnc([C@@](C)(O)C3CC3)n2)cc1-n1c(C)cc(OCc2ncc(F)cc2F)c(Cl)c1=O (single isomer, unassigned) [Example 6A, rel-3-chloro-2′-[2-(1-cyclopropyl-1-hydroxyethyl)pyrimidin-4-yl]-4-[(3,5-difluoropyridin-2-yl)methoxy]-5′,6-dimethyl-[1,4′-bipyridin]-2-one] | – | 10 µM | 0.0251 µM | – |
| Cc1cnc(-c2ccc3c(n2)[C@@H](O)CC3)cc1-n1c(C)cc(OCc2ncc(F)cc2F)c(Cl)c1=O (single isomer, unassigned) [Example 18B] | – | > 316 µM | > 10 µM | – |
| Cc1cnc(-c2ccn(C(C)(C)CO)n2)cc1-n1c(C)cc(OCc2ncc(F)cc2F)c(Cl)c1=O (single isomer, unassigned) [Example 25B, rel-3-chloro-4-[(3,5-difluoropyridin-2-yl)methoxy]-2′-[1-(1-hydroxy-2-methylpropan-2-yl)pyrazol-3-yl]-5′,6-dimethyl-[1,4′-bipyridin]-2-one] | – | > 316 µM | 3.16 µM | – |
| Cc1cnc(-c2ccnc(C3(O)CC3)n2)cc1-n1c(C)cc(OCc2ncc(F)cc2F)c(Cl)c1=O (single isomer, unassigned) [Example 3A, rel-3-chloro-4-[(3,5-difluoropyridin-2-yl)methoxy]-2′-[2-(1-hydroxycyclopropyl)pyrimidin-4-yl]-5′,6-dimethyl-[1,4′-bipyridin]-2-one] | 0.01 µM | 3.98 µM | – | – |
| Cc1cnc(-c2ccc3c(n2)[C@H](O)CC3)cc1-n1c(C)cc(OCc2ncc(F)cc2F)c(Cl)c1=O (single isomer, unassigned) [Example 18A] | – | 25.1 µM | 0.158 µM | – |
